# Results: PMC5320730, “Synthetic curcumin derivative DK1 possessed G2/M arrest and induced apoptosis through accumulation of intracellular ROS in MCF-7 breast cancer cells” (Cancer Cell International, 2017)
# What was measured:
# HL-60 cells = test: MTT cell viability assay, HL-60; format: cell-based; conditions: Homo sapiens, HL-60, MTT
# Experimental: (§1) Promyelocytic leukemia HL60, hepatoblastoma HepG2, breast cancer MCF-7 and MDA-MB-231 cells were purchased from ATCC (USA) and cultured in RPMI-1640 media (Sigma, USA), supplemented with 10% fetal bovine serum (FBS) (PAA, USA). Normal epithelial MCF-10A cells (ATCC, USA) was maintain in DMEM-F12 (Sigma, USA) supplemented with hydrocortisone (0.5 μg/mL), insulin (10 μg/mL), human epidermal growth factor (hEGF) (20 ng/mL) (Sigma, USA) and 10% FBS (PAA, USA).
# (§2) MTT cell viability assay was used to evaluate the effect of DK1 on viability of HL-60, HepG2, MCF-7, MDA-MB-231 and MCF-10A cells. Briefly, each type of cells (8 × 10^4cells/well) was seeded in 96-well plate in 37 °C CO2 incubator overnight. Then, DK1 was added at concentration ranging between 200 and 3.125 µM by twofold serial dilution. Untreated control was prepared simultaneously. After that, the cells were incubated for 24, 48 and 72 h at 37 °C in 5% CO2 incubator. After the incubation period, all well was added with 20 μL of MTT solution (5 mg/mL) and further incubated for 3 h. Subsequently, 170 μL of supernatant from each well was discarded, 100 μL of dimethyl sulfoxide (DMSO) was added to solubilize the purple formazan crystal and the absorbance was measured at a wavelength of 570 nm by Enzyme-linked immunosorbent assay (ELISA) plate reader (Bio-tek instruments, USA). All cell lines were assayed for three biological replicates each with triplicates. Percentage of cell viability was calculated using the following formula: Cell viability%=OD sample/OD control×100%
# (§3) IC50 value (concentration of DK1 that reduce 50% of cell viability compared to control cell) was determined from the graph of cell viability (%) vs DK1 concentration. Subsequently, selective index, which indicating selectivity of DK1 against cancerous and normal breast cell lines, was calculated by: Selective indexSI=IC50of DK1on normal MCF-10A cell line/IC50on breast cancerous cell lineHL60/HepG2/MCF-7/MDA-MB-231
# HepG2 cells = test: MTT cell viability assay, HepG2; format: cell-based; conditions: Homo sapiens
# Experimental: as §1, §2, §3
# MCF-7 cells [1] = test: MTT cell viability assay, MCF-7; format: cell-based, human; conditions: for IC50: Homo sapiens, MCF7, MCF-7, MTT
# Experimental: as §1, §2, §3
# MDA-MB-231 cells = test: MTT cell viability assay, MDA-MB-231; format: cell-based, human; conditions: for IC50: Homo sapiens, MDA-MB-231, MTT
# Experimental: as §1, §2, §3
# MCF-10A cells = test: MTT cell viability assay, normal MCF-10A; format: cell-based; conditions: Homo sapiens
# Experimental: as §1, §2, §3
# MCF-7 cells [2] = test: Fluorescent microscopy with acridine orange/propidium iodide staining, count of 200 cells; format: cell-based, human; conditions: MCF-7, 25 µM, 72 h, AO/PI, scoring of 200 cells
# Experimental: Prior to harvest the cell, morphology of control and DK1 treated MCF-7 was observed using light microscope. In addition, harvested control and treated MCF-7 cells were resuspended in 100 μL of Phosphate buffer saline (PBS), stained with 10 μg/mL of Acridine orange (AO) and propidium iodide (PI) and viewed under fluorescent microscope (Nikon, Japan).
# MCF-7 cells [3] = test: Flow cytometry AnnexinV-FITC/PI apoptosis analysis; format: cell-based, human; conditions: MCF-7, 25 µM, 72 h, AnnexinV/PI
# Experimental: Apoptosis of DK1 treated MCF-7 was compared with the control cell by Flow cytometry AnnexinV-FITC/PI apoptosis assay. Briefly, harvested cells were resuspended in 100 μL of 1× binding buffer and stained with 5 μL each of AnnexinV-FITC and propidiumiodide. After 15 min of incubation, the cells were added with 400 μL of 1× binding buffer and subjected to BD FACS Calibur flow cytometer analysis using BD Cell Quest Pro software (Becton–Dickinson, USA).
# GSH in MCF-7 cells = test: Intracellular glutathione (GSH) quantification; format: cell-based, human; conditions: MCF-7, 25 µM
# Experimental: (§4) Harvested cell was subjected to two times of freeze and thaw in 100 μL of PBS. The lysed cell was then pelleted and the supernatant was subjected to GSH and ROS quantification using Glutathione assay kit (Sigma, USA) and OxiSelect ROS assay kit (Cell Biolabs, USA) according to manufacturers’ protocol.
# (§5) For GSH quantification, 10 μL of cell lysate supernatant was added with 150 μL of working solution (1.5 mg/mL DTNB solution, 6 units/mL glutathione reductase and 1× assay buffer), incubated for 5 min and added with 50 μL of NADPH solution (0.16 mg/mL). The absorbance was read at a wavelength of 412 nm by ELISA plate reader (Bio-Tek instrument, USA) for every minute in duration of 5 min. For intracellular ROS quantification, supernatant was added with 10 μM DCFH-DA for 30 min at 37 °C. Then, the fluorescence intensity of DCFH-DA was measured using microplate fluorometer (Thermo Scientific, USA) with a 485/538 nm filter. Fold change of GSH and ROS was calculated by dividing absorbance or fluorescence intensity of DK1 treated MCF-7 with untreated control MCF-7.
# ROS in MCF-7 cells = test: Intracellular reactive oxygen species (ROS) detection, DCFH-DA; format: cell-based, human; conditions: MCF-7, 25 µM
# Experimental: as §4, §5
# [4] = test system: active caspase 9 in MCF-7 cells; test: Active caspase 9 staining (CaspGLOW), fluorometry; format: cell-based, human; conditions: MCF-7, 25 µM
# Experimental: (§6) The level of active caspase 9 and cytochrome c of the control and DK1 treated MCF-7 were quantified using CaspGLOW Red Active Caspase-9 staining kit (BioVision, USA) and human cytochrome c platinum ELISA (eBioscience Affymetrix, USA), respectively according to manufacturers’ protocol. Fold change of caspase 9 and cytochrome c was calculated by dividing fluorescence intensity or absorbance of DK1 treated MCF-7 with untreated control MCF-7.
# [5] = test system: cytochrome c in MCF-7 cells; test: Cytochrome c ELISA; format: cell-based, human; conditions: MCF-7, 25 µM
# Experimental: as §6
# p53 in MCF-7 cells = test: Western blot analysis of p53; format: cell-based, human; conditions: MCF-7, 25 µM, western blot
# Experimental: (§7) Total protein was extracted from harvested cell with Radioimmunoprecipitation assay (RIPA) buffer supplemented with phosphatase inhibitor cocktail (Roche, Canada) and the concentration was quantified by Bradford assay (Sigma, USA). Then, 100 μg of extracted protein was subjected to sodium dodecyl sulfate polyacrylamide gel electrophoresis (SDS-PAGE) (Bio-Rad, USA), transferred to nitrocellulose membrane, block with 0.5% skimmed milk overnight, washed with Tris-buffered saline tween (TBST) buffer and incubated with primary antibodies (anti-CDC2, anti-pCDC2 (Tyr15), anti-p53, and anti-β-actin at a dilution of 1:1000 (Abcam, USA) for 1 h. After that, membranes were washed, incubated with 1:5000 diluted goat anti-rabbit IgG H&L conjugated to […] (Abcam, USA) and developed under chemiluminescence condition (Super Signal West Pico, Pierce, USA) using the ChemiDoc XRS (Bio-Rad, USA). Differential level of evaluated protein in control and DK1 treated MCF-7 was calculated based on the bands intensity analyzed using the Quantity One 1D Analysis software (Bio-rad, USA).
# [6] = test system: CDC2 and phospho-CDC2 (Tyr15) in MCF-7 cells; test: Western blot analysis of CDC2 and p-CDC2 (Tyr15); format: cell-based, human; conditions: MCF-7, 25 µM, 48 and 72 h
# Experimental: as §7
# MCF-7 cells [7] = test: Flow cytometry cell cycle analysis (PI); format: cell-based, human; conditions: MCF-7, 25 µM
# Experimental: Cell cycle progression of control and DK1 treated MCF-7 was analysed using BD FACS Calibur flow cytometer (Becton–Dickinson, USA). Briefly, harvested cells were added with 250 μL of trypsin buffer with 10 min incubation, followed by 200 μL of trypsin inhibitor with RNase buffer with 10 min incubation, and finally stained with 200 μL of propidium iodide (PI) from BD Cycletest Plus kit (Becton–Dickinson, USA). All stained cells were subjected to BD FACS Calibur flow cytometer analysis using BD Cell Quest Pro software (Becton–Dickinson, USA).
# [8] = test system: PLK1, p21 and WEE-1 expression in MCF-7 cells; test: qRT-PCR of cell cycle related genes; conditions: MCF-7, 25 µM, qRT-PCR, p < 0.05
# MCF-7 cells [9] = conditions: on MCF-7; cited from earlier work
smiles,measurement,setting,value
"O=C(/C=C(\O)c1ccccc1)c1ccccc1O [DK1, (Z)-3-hydroxy-1-(2-hydroxyphenyl)-3-phenylprop-2-en-1-one]",IC50,HL-60 cells; 24 h,138 ± 2.16 µM
same,IC50,HL-60 cells; 48 h,124 ± 3.27 µM
same,IC50,HL-60 cells; 72 h,73.4 ± 2.65 µM
same,IC50,HepG2 cells; 24 h,> 150 µM
same,IC50,HepG2 cells; 48 h,138 ± 4.13 µM
same,IC50,HepG2 cells; 72 h,64.2 ± 3.12 µM
same,IC50,MCF-7 cells [1]; 24 h,96.8 ± 4.87 µM
same,IC50,MCF-7 cells [1]; 48 h,33.3 ± 3.5 µM
same,IC50,MCF-7 cells [1]; 72 h,25 ± 3.71 µM
same,Selective index of MCF-10A/MCF-7,"MCF-7 cells [1]; IC50 MCF-10A / IC50 MCF-7, 24 h",>2.17
same,Selective index of MCF-10A/MCF-7,"MCF-7 cells [1]; IC50 MCF-10A / IC50 MCF-7, 48 h",3.75
same,Selective index of MCF-10A/MCF-7,"MCF-7 cells [1]; IC50 MCF-10A / IC50 MCF-7, 72 h",4.17
same,SI values,"MCF-7 cells [1]; MCF-7, overall statement",higher than 2
same,IC50,MDA-MB-231 cells; 24 h,104 ± 5.23 µM
same,IC50,MDA-MB-231 cells; 48 h,45.8 ± 4.66 µM
same,IC50,MDA-MB-231 cells; 72 h,37.5 ± 4.82 µM
same,Selective index of MCF-10A/MDA,"MDA-MB-231 cells; IC50 MCF-10A / IC50 MDA-MB-231, 24 h",>2.00
same,Selective index of MCF-10A/MDA,"MDA-MB-231 cells; IC50 MCF-10A / IC50 MDA-MB-231, 48 h",2.72
same,Selective index of MCF-10A/MDA,"MDA-MB-231 cells; IC50 MCF-10A / IC50 MDA-MB-231, 72 h",2.77
same,SI values,"MDA-MB-231 cells; MDA-MB-231, overall statement",higher than 2
same,IC50,MCF-10A cells; 24 h,> 208 µM
same,IC50,MCF-10A cells; 48 h,126 ± 3.67 µM
same,IC50,MCF-10A cells; 72 h,104 ± 5.21 µM
same,cells undergone apoptosis,MCF-7 cells [2],~ 12.5%
same,cells undergone late apoptosis/necrosis,MCF-7 cells [2],~ 31%
same,early apoptosis,MCF-7 cells [3],~ 14%
same,late apoptosis,MCF-7 cells [3],~ 39%
same,reduction of GSH level compared to control,GSH in MCF-7 cells; 48 h,~ 2.2 fold
same,reduction of GSH level compared to control,GSH in MCF-7 cells; 72 h,~ 3.3 fold
same,generation of ROS compared to control,ROS in MCF-7 cells; 48 h,~ 1.9 fold
same,generation of ROS compared to control,ROS in MCF-7 cells; 72 h,~ 2.6 fold
same,promotion of active caspase 9 compared to control,[4]; 48 h,~ 1.9 fold
same,promotion of active caspase 9 compared to control,[4]; 72 h,~ 2.4 fold
same,promotion of cytochrome c compared to control,[5]; 48 h,~ 2.1 fold
same,promotion of cytochrome c compared to control,[5]; 72 h,~ 2.8 fold
same,promotion of p53 protein compared to control,p53 in MCF-7 cells; 48 h,~ 1.6 fold
same,promotion of p53 protein compared to control,p53 in MCF-7 cells; 72 h,~ 2.0 fold
same,CDC2 protein level,[6],reduction
same,phospho-CDC2 (Tyr15) protein level,[6],accumulation
same,percentage of cell population in G2/M phase,MCF-7 cells [7]; 24 h (control ~18%),~ 25%
same,percentage of cell population in G2/M phase,MCF-7 cells [7]; 48 h (control ~18%),~ 26%
same,percentage of cell population in G2/M phase,MCF-7 cells [7]; 72 h (control ~18%),~ 31%
same,expression of PLK1 compared to control,[8],downregulated
same,expression of WEE-1 compared to control,[8],enhanced
same,expression of p21 compared to control,[8],enhanced
COc1ccc(/C=C/C(=O)c2c(O)cc(OC)cc2OC)cc1 [flavokawain A],SI value,MCF-7 cells [9],3.78
